From patent US20040053872A1, “New sequences” (priority 2000, published 2004)
Where two headings read alike, the source gives them in different places. Strand notation (5' to 3'): a small letter for the sugar, then the base; units joined by * are phosphorothioate-linked, units joined directly phosphodiester-linked; [ ] holds rarer units or linkages, { } end groups; capitals alone tell only the bases. r = 2'-OH (RNA)

Assays:
[1] = molecular target: T1, recombinant HIV-1 RT, ref RT (HIV type B, clone BH 10) (Human immunodeficiency virus type 1 group M subtype B, UniProt P03366); assay type: biochemical; parameters: performed by recombinant HIV-1 RT:s with defined; details: second strand DNA synthesis, preincubation 30 minutes at 33° C., 3 hours, read-out: IC50 of indicated inhibitor in DNAp assay
Text: The flourimetric DNA-polymerase assay used is available from Cavidi Tech AB, Uppsala, Sweden. It is based on a short DNA primer analogous to a part of the tRNA^Lys3 sequence. The template is a single stranded deoxynucleotide template with part of the sequence complementary to the primer. The enzyme reaction is dependent on all four deoxynucleotide bases. The thymidine triphosphate is, however, replaced by BrdUTP. The amount of BrdUMP incorporated into DNA during the polymerase reaction is detected with an alkaline phosphatase (Ap) conjugated anti-BrdU monoclonal antibody. An Ap substrate, 4-methylumbelliferyl phosphate, is finally used for fluorimetric product detection.
(ii) Protocol for determination of inhibition of second strand synthesis on a variable DNA template: The inhibition studies were performed in a modified DNA polymerase assay. The inhibitors were serially diluted in five steps, enzyme dilution was added and the enzyme/inhibitor mixtures were incubated for 30 minutes at 33° C. The enzyme reaction was initiated by addition of 75 μl aliquots of the enzyme/inhibitor mixture to each well of a microtiter plate containing 75 μl DNA polymerase reaction mixture per well. The polymerase reaction was allowed to proceed for 3 hours at 33° C. whereupon the reaction was terminated by a wash of the plate. […]

[2] = molecular target: T1, recombinant HIV-1 RT, ref RT (HIV type B, clone BH 10); experiment: RT assay: inhibition of RNA dependent DNA polymerisation (modified Lenti RT assay); assay type: biochemical; parameters: performed by recombinant HIV-1 RT:s with defined; details: enzyme/inhibitor preincubated 30 minutes at 33° C., BrdUTP 0.35 μM, odT22 0.03 ng per well, 3 hours, read-out: IC50 of indicated inhibitor in RT assay
Method: (§1) The flourimetric RT assay (Cavidi® Lenti RT activity kit), available from Cavidi Tech, Uppsala, Sweden, was used for the determination of RT activity. In short, poly(rA) covalently bound to the wells of a 96 well microtiter plate serves as template for the incorporation of 5-bromodeoxyuridine 5′-triphosphate (BrdUTP) during the reverse transcription step at 33° C. The amount of bromodeoxyuridine monophosphate (BrdUMP) incorporated into DNA is detected with an alkaline phosphatase (Ap) conjugated, anti-BrdU monoclonal antibody. An Ap substrate, 4-methylumbelliferyl phosphate, is finally used for fluorimetric product detection.
(§2) (i) Protocol for determination of inhibition of RNA dependent DNA polymerisation: The inhibition studies were performed in a modified Lenti RT assay. The inhibitors were serially diluted in five steps, whereupon enzyme dilution was added and the enzyme/inhibitor mixtures were incubated for 30 minutes at 33° C. The enzyme reaction was initiated by addition of 100 μl aliquots of the enzyme/inhibitor mixture to each well of a microtiter plate containing 100 μl RT reaction mixture per well. The polymerase reaction was allowed to proceed for 3 hours at 33° C., whereupon the reaction was terminated by a wash of the plate. […] The amount of RT used was standardised to an activity corresponding to 90-130 pg (7-10×10^−16 mol) reference HIV-1 RT per well […]

[3] = molecular target: T2, recombinant HIV-1 RT L100I/K103N (Human immunodeficiency virus type 1 group M subtype B, UniProt P03366, K702N/L699I); experiment: as above; assay type: biochemical; details: enzyme/inhibitor preincubated 30 minutes at 33° C., BrdUTP 0.35 μM, odT22 0.03 ng per well, 3 hours, read-out: IC50 of indicated inhibitor in RT assay
T2 construct: performed by recombinant HIV-1 RT:s with defined
Method: as §1, §2

[4] = molecular target: T3, recombinant HIV-1 RT E478Q (Human immunodeficiency virus type 1 group M subtype B, UniProt P03366, E1077Q); experiment: as above; assay type: biochemical; details: read-out: IC50 of indicated inhibitor in RT assay
T3 construct: performed by recombinant HIV-1 RT:s with defined
Method: as §1
(i) Protocol for determination of inhibition of RNA dependent DNA polymerisation: The inhibition studies were performed in a modified Lenti RT assay. The inhibitors were serially diluted in five steps, whereupon enzyme dilution was added and the enzyme/inhibitor mixtures were incubated for 30 minutes at 33° C. The enzyme reaction was initiated by addition of 100 μl aliquots of the enzyme/inhibitor mixture to each well of a microtiter plate containing 100 μl RT reaction mixture per well. The polymerase reaction was allowed to proceed for 3 hours at 33° C., whereupon the reaction was terminated by a wash of the plate. […] The amount of RT used was standardised to an activity corresponding to 90-130 pg (7-10×10^−16 mol) reference HIV-1 RT per well
The capacity of the indicated substances to inhibit the enzymes in a panel of recombinant HIV 1 subtype B RTs was studied according to “Protocol for determination of inhibition of RNA dependent DNA polymerisation” (protocol (i) above). The final nucleotide substrate (BrdUTP) concentration was 0.35 μM, and the primer (odT22) amount was 0.03 ng per well.
The RT reaction time used was 3 hours and the results are depicted in FIG. 8 (A-C).

[5] = molecular target: T3, recombinant HIV-1 RT E478Q; details: binding 90 min at 33° C.
Method: (§3) (iii) Protocol for RT binding inhibition (BIC) assay: The study was performed in a modified DNA polymerase assay. The inhibitors were serially diluted in five steps, enzyme dilution was added and the enzyme/inhibitor mixtures were incubated for 30 minutes at 33° C. Aliquots of the enzyme/inhibitor mixture were transferred to each well of a microtiter plate containing either immobilised primer, or primer/template. The enzyme was allowed to bind to the immobilised polymer for 90 min at 33° C. The amount of RT used was standardised to an activity corresponding to 40-60 pg (3.3-5.0×10^−16 mol) reference HIV-1 RT per well. The plates were then washed to remove unbound enzyme whereupon the amount of bound enzyme was determined by addition of the appropriate reaction solution for polymerisation (i e a reaction solution devoid of primer for studies of primer binding and a reaction solution devoid of both primer and template for studies of binding to primed template). The polymerase reaction was allowed to proceed for 3 hours at 33° C., whereupon the reaction was terminated by a wash of the plate.
(§4) The capacity of the indicated substances to inhibit the binding to primer or to primed DNA template of a panel of recombinant HIV 1 subtype B RTs was studied according to “Protocol for RT binding inhibition (BIC) assay” (protocol (iii) above).

[6] = molecular target: T4, recombinant HIV-1 RT L100I (Human immunodeficiency virus type 1 group M subtype B, UniProt P03366, L699I); details: binding 90 min at 33° C.
T4 construct: performed by recombinant HIV-1 RT:s with defined
Method: as §3, §4

[7] = enzyme/inhibitor preincubated 30 minutes at 33° C., BrdUTP 0.35 μM, odT22 0.03 ng per well, 3 hours
[8] = immobilised primer, read-out: Inhibition of binding to primer (BIC50)
[9] = immobilised primer/template, read-out: Inhibition of binding to template/primer (BIC50)

substance 199: 35-mer RNA molecule having the sequence set out in SEQ ID NO:5; similar to SEQ ID NO:4 with some naturally occurring nucleotide derivatives (GCUCAGNCGGNAGAGCANCAGACUUUUAANCUGAN; RNA, backbone, methylation of C and the base at N not given here; naturally occurring modified nucleosides at n positions)
IC50 [1]: 40 nM
IC50 [2]: 6.6 nM
IC50 [3]: 12 nM
IC50 ([4]; RT and inhibitor added directly to the assay mixture without preincubation): 11 nM
IC50 [4, 7]: 6 nM
IC50 [5, 8]: 7 nM
IC50 [5, 9]: 14 nM
IC50 [6, 8]: 7 nM

substance 198: 15-mer RNA phosphorothioate with the base sequence of tRNALys3 anticodon stem and loop, SEQ ID NO:7 (rC*rA*rG*rA*rC*rU*rU*rU*rU*rA*rA*rU*rC*rU*rG) [reference compound]
IC50 [1]: 550 nM
IC50 [2]: 470 nM
IC50 [3]: 900 nM
IC50 [4, 7]: 320 nM
IC50 [5, 8]: > 1000 nM
IC50 [5, 9]: > 1000 nM
IC50 [6, 8]: > 1000 nM
IC50 [6, 9]: > 1000 nM
